Experimental findings from patent US4558064A, “2-Azasfiro[4.(3+N)]-3-carboxylic acid derivatives, a process for their preparation, agents containing these derivatives and their use” (Hoechst Aktiengesellschaft, priority 1982, dated 1985) are described below.

The subject of this experiment is pressor response induced by angiotensin I. As to the kind of experiment: suppression of the pressor response in the rat induced by 310 ng of angiotensin I. The class given is in vivo. Particulars: 30 minutes after administration, 310 ng angiotensin I. The procedure: In animal experiments, the following effects, for example, were obtained: the suppression of the pressor response in the rat induced by 310 ng of angiotensin I was measured.
(a) i.v. administration (30 minutes after administration)
(b) i.d. administration (30 minutes after administration)

Where [1] appears, read: i.v. administration, dose 100 μg/kg.

`CCOC(=O)C(CCc1ccccc1)NC(C)C(=O)N1CC2(CCCC2)CC1C(=O)O` (stereo not drawn): the “% inhibition of the pressor response induced by angiotensin I” value (“% inhibition” below) is reported as 85-95% (i.d. administration, dose 1 mg/kg) and 95% under setting [1].

As to `CCOC(=O)C(CCc1ccccc1)NC(C)C(=O)N1CC2(CCCCC2)CC1C(=O)O` (stereo not drawn), the “% inhibition” value reads like this: (i.d. administration, dose 0.1 mg (so in the source)) 60-70%; under setting [1], 95%.

`CC(NC(CCc1ccccc1)C(=O)O)C(=O)N1CC2(CCCCCC2)CC1C(=O)O` (stereo not drawn): the “% inhibition” value under setting [1] was determined as 95%.

On to `CCOC(=O)C(CC(=O)c1ccccc1)NC(C)C(=O)N1CC2(CCCCC2)CC1C(=O)O` (stereo not drawn) [N-(1-Carboethoxy-3-oxo-3-phenylpropyl)alanyl-2-azaspiro[4.5]decane-3-carboxylic acid], for which the “% inhibition” value under setting [1] is on record as 95%.
